Tests used:
[1] = biological target: T1, human vanilloid receptor VR-1 (hVR1) (Homo sapiens, UniProt Q8NER1); assay: Calcium influx test of vanilloid receptor (capsaicin-induced, Fluo-3/AM, hVR1-HEK293 cells); assay type: cell-based; details: for inhibition at 0.2 µM: single concentration of compound 200 nM, 1 μM capsaicin, read-out: Inhibitory effect (%) on calcium influx; for IC50: calcium influx induced by 1 μM capsaicin, read-out: Inhibitory effect IC50 (nM) on calcium influx
T1 construct: expressed in transfected cells; host or cells: HEK293 Tet-on cells (hVR1-HEK293), expression induced with doxycycline
Procedure: In order to measure an activity of the biaryl benzoimidazole derivative of the invention as an antagonist, a calcium influx test was performed.
An hVR1-HEK293 cell line is a cell line, in which a Human Embryonic Kidney (HEK) 293 Tet-on cell is transformed with a human vanilloid-1 gene (pTRE2hyg-hVR1, 7.8 kb). The cell line can regulate a VR-1 expression, depending on the administration of a tetracycline analogue, doxycycline. At two days before the calcium influx test, the cell line was cultured in media containing doxycycline to induce the VR-1 expression, and then used. First, the hVR1-HEK293 cells were cultured in T75 flasks to have a density of about 80%, and then detached from the bottom of the flasks by using trypsin. The detached cells were centrifuged and collected. Then, the cells were suspended in media containing 1 μg/mL doxycycline, and diluted to have a concentration of 2×10^5 to 4×10^5 cells/mL. 100 μL of the suspended cells were added to each well of 96-well black plate, cultured at 37° C. and 5% CO2 cell incubator for two days, and then used in the calcium influx test.
The compound was dissolved in dimethyl sulfoxide (DMSO), and then used for the calcium influx test.
In order to measure the calcium influx […], the cells were cultured in a solution containing Fluo-3/AM, which is a calcium indicator, at 37° C. for 90 minutes, so as to be permeated by a fluorescent dye. […] 193 μL D-PBS were added to each well, and then the compound was added thereto in various concentrations. To measure an activity as an antagonist, the cells were treated with 1 μM capsaicin to stimulate the calcium influx. The inhibitory effect of the compound when calcium influx was induced by 1 μM capsaicin was measured depending on its concentration using a fluorescence spectrometer, and the obtained data were substituted into a hill equation to analyze the values.
The inhibitory effect on calcium influx was measured with a single concentration of the compounds of the invention (200 nM), and the result thereof are shown in Table 2.

ICR male mouse = assay: PBQ-induced writhing test (analgesic efficacy); assay type: in vivo; details: oral administration, PBQ 0.02% intraperitoneal
Procedure: In order to test analgesic efficacy of the biaryl benzoimidazole derivative of the invention, a PBQ-induced writhing test was performed using a mouse.
A 5-week-old ICR male mouse was used as an experimental animal, and PBQ (phenyl-p-quinone, 0.02%) was used as a chemical stimulator. 20 mg of the test material per mouse body weight were suspended in 10 mL solvent of Na-CMC and saline solution, and then used. […] Between 5 to 10 minutes after administration, the writhing frequency of each subject of the experimental groups was measured, and for the measurement of the analgesic efficacy, the frequency reduction was calculated as compared to a control group by using Equation 1. Inhibitory effect (%)=[(a control group administered with excipient−a group administered with test material)/a control group administered with excipient]×100 [Equation 1]

T1 sequence (Q8NER1 whole entry): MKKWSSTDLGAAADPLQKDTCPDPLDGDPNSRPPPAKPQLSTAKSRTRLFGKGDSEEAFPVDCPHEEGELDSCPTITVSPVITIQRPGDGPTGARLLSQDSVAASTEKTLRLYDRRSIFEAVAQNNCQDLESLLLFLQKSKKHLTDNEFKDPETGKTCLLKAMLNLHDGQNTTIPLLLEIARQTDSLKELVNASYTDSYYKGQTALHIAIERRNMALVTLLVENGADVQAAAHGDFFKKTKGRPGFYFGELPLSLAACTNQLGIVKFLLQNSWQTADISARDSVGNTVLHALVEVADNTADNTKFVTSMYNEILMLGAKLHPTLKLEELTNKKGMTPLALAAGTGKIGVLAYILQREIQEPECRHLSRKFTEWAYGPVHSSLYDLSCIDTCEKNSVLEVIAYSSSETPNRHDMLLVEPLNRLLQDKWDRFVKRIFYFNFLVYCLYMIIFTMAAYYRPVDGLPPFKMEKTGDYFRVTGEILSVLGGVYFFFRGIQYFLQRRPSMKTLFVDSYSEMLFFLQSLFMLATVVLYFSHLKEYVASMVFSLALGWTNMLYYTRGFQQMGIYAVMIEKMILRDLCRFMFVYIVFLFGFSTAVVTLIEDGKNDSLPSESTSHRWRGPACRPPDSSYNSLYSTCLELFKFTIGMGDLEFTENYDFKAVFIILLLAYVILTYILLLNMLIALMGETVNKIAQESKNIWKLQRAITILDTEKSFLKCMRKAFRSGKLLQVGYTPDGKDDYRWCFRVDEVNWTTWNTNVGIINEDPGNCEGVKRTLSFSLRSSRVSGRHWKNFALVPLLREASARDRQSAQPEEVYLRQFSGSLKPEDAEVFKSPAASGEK

inhibition at 0.2 µM [1] | IC50 [1] | SMILES | Inhibitory effect (%) on writhing frequency (ICR male mouse; (0.5 hour)) | Inhibitory effect (%) on writhing frequency (ICR male mouse; (2 hour)) | Inhibitory effect (%) on writhing frequency (ICR male mouse; (1 hour))
-2.9% |  | COC(=O)c1cnc(-c2ccc(-c3nc4ccc(N5CCN(C)CC5)cc4[nH]3)nc2)c(Cl)c1 [Compound 72, 3-chloro-6′-[6-(4-methyl-piperazin-1-yl)-1H-benzoimidazol-2-yl]-[2,3′]bipyridinyl-5-carboxylic acid methyl ester] | 31 (0.5 hour) % |  | 
37.4% | 90.4 nM | CC(=O)OCc1cnc(-c2ccc(-c3nc4ccc(C(F)(F)F)cc4[nH]3)cc2)c(Cl)c1 [Compound 53, acetic acid 5-chloro-6-[4-(6-trifluoromethyl-1H-benzoimidazol-2-yl)-phenyl]-pyridin-3-yl methyl ester] |  | 34 (2 hour) % | 
46.4% | 62.3 nM | COC(=O)c1cnc(-c2ccc(-c3nc4ccc(Br)cc4[nH]3)cc2)c(Cl)c1 [Compound 50, 6-[4-(6-bromo-1H-benzoimidazol-2-yl)-phenyl]-5-chloro-nicotinic acid methyl ester] |  |  | 19 (1 hour) %
38.7% | 55.1 nM | COC(=O)c1cnc(-c2ccc(-c3nc4ccc(C(F)(F)F)cc4[nH]3)cc2)c(Cl)c1 [Compound 48, 5-chloro-6-[4-(6-trifluoromethyl-1H-benzoimidazol-2-yl)-phenyl]-nicotinic acid methyl ester] |  |  | 41 (1 hour) %
56.1% | 55.2 nM | COC(=O)c1cnc(-c2ccc(-c3nc4ccc(C(F)(F)F)cc4[nH]3)nc2)c(Cl)c1 [Compound 73, 3-chloro-6′-(6-trifluoromethyl-1H-benzoimidazol-2-yl)-[2,3′]bipyridinyl-5-carboxylic acid methyl ester] |  |  | 39 (1 hour) %
85% | 23.1 nM | COC(=O)c1cnc(-c2ccc(-c3nc4ccc(C(C)(C)C)cc4[nH]3)cc2)c(Cl)c1 [Compound 49, 6-[4-(6-tert-butyl-1H-benzoimidazol-2-yl)-phenyl]-5-chloro-nicotinic acid methyl ester] |  | 49 (2 hour) % | 
5% |  | OCc1cnc(-c2ccc(-c3nc4ccc(N5CCOCC5)cc4[nH]3)cc2)c(Cl)c1 [Compound 26, {5-chloro-6-[4-(6-morpholin-4-yl-1H-benzoimidazol-2-yl)-phenyl]-pyridin-3-yl}-methanol] |  |  | 
-2.2% |  | C=Cc1cnc(-c2ccc(-c3nc4ccc(Br)cc4[nH]3)nc2)c(Cl)c1 [Compound 68, 6′-(6-bromo-1H-benzoimidazol-2-yl)-3-chloro-5-vinyl-[2,3′]bipyridinyl] |  |  | 
74.8% | 15.9 nM | CC(C)(C)c1ccc2nc(-c3ccc(-c4ncc(CO)cc4Cl)cc3)[nH]c2c1 [Compound 29, {6-[4-(6-tert-butyl-1H-benzoimidazol-2-yl)-phenyl]-5-chloro-pyridin-3-yl}-methanol] |  |  | 59 (1 hour) %
9.8% |  | OCc1cnc(-c2ccc(-c3nc4c(Br)cc(Br)cc4[nH]3)nc2)c(Cl)c1 [Compound 94, [3-chloro-6′-(4,6-dibromo-1H-benzoimidazol-2-yl)-[2,3′]bipyridinyl-5-yl]-methanol] |  |  | 
